The record followed here is patent US6890727B2, “Diagnostic assay for Alzheimer's disease: assessment of Aβ abnormalities” (The General Hospital Corporation, priority 1994, dated 2005).

Entries after “also recorded” stand apart in the source; their conditions may differ.

A short description of data set [1]: Clinical study of oral zinc supplementation: cognition and plasma APP levels. It is filed as in vivo, human. The procedure:
The cerebral cortex, and especially the hippocampus, contains the highest concentrations of zinc in the body (C. J. Frederickson, M. A. Klitenick, W. I. Manton, J. B. Kirkpatrick, Brain Res. 273:335 (1983)), and is exposed to extreme fluctuations of extracellular zinc levels (0.15 to 300 μM, C. J. Frederickson, Int. Rev. Neurobiol. 31:145 (1989)), e.g. during synaptic transmission (S. Y. Assaf and S.-H. Chung, Nature 308:734 (1984); G. A. Howell, M. G. Welch, C. J. Frederickson, Nature 308:736 (1984)). The cortical vasculature contains an intraluminal zinc concentration of 20 μM (I. J. T. Davies, M. Musa, T. L. Dormandy, J. Clin. Pathol. 21:359 (1968)), but the perivascular interstitial zinc concentration is 0.15/μM (C. J. Frederickson, Int. Rev. Neurobiol. 31:145 (1989)). Both sites of high zinc concentration gradients are severely and consistently affected by the pathological lesions of AD (B. T. Hyman, G. W. Van Hoesen, L. J. Kroner, A. R. Damasio, Ann. Neurol. 20:472 (1986); G. G. Glenner and C. W. Wong, Biochem. Biophys. Res. Commun. 120:885 (1984)). […] Additional evidence for altered cerebral zinc metabolism in AD include decreased temporal lobe zinc levels (D. Wenstrup, W. D. Ehmann, W. R. Markesbery, Brain Res. 533:125 (1990); J. Constantinidis, Encephale 16:231 (1990); F. M. Corrigan, G. P. Reynolds, N. I. Ward, Biometals 6:149 (1993)), elevated (80%) CSF levels (C. O. Hershey et al, Neurology 33:1350 (1983)), an increase in extracellular Zn^2+-metalloproteinase activities in AD hippocampus (J. R. Backstrom, C. A. Miller, Z. A. Tökés, J. Neurochem. 58:983 (1992)), and decreased levels of astrocytic growth-inhibitory factor, a metallothionein-like protein which chelates zinc (Y. Uchida, K. Takio, K. Titani, Y. Ihara, M. Tomonaga, Neuron 7:337 (1991)). Recently, a clinical study assayed the effects of oral zinc supplementation (6.7-fold the recommended daily allowance, a dose commonly found in nutritional supplements) upon cognition and plasma APP levels in AD subjects and age-matched controls. […]

Data set [2] addresses T1, Aβ (Homo sapiens, UniProt P05067).
T1 construct: purchased Sigma; Bachem (results also replicated with peptide from the Keck Laboratory, Yale); host or cells: chemical synthesis
Put plainly: SDS Tris/Tricine gel electrophoresis of Aβ incubated with Zn2+. The settings on record: Zn^2+ 200 μM, 1-24 h, 20° C. The procedure: To further test whether zinc induces irreversible precipitation of Aβ in the absence of kaolin, Aβ incubated with Zn^2+ (200 μM, 1-24 h, 20° C.) was subjected to SDS Tris/Tricine gel electrophoresis.

In data set [3] the target is T1, Aβ. In words: G50 gel filtration chromatography of Aβ in presence of metal ions or EDTA. Particulars: 25 μM total metal ion. The procedure: Aβ was stored in aliquots of 0.52 mg/ml in water at −20° C., then kept at 4° C. when thawed. Reagents were mixed without vortex mixing. The incubated Aβ was directly applied to a G50 SF (Pharmacia, Uppsala, Sweden) column (Bio-Rad Econo-Column, 30×0.7 cm) pre-equilibrated with metal salt solution or EDTA (50 μM) in TBS at 20° C. and eluted at 8 ml/h (Wiz peristaltic pump, Isco, Lincoln, Nebr.). Absorbance was measured at 254 and 214 nm (Type 6 optical unit, Isco). The amount of Aβ eluting at various peaks was estimated from the area under the curve. […] Because the sample eluted in a volume of approximately 15 ml, the average concentration of the peptide on the column was 0.8 μM.
To study the effects of protein blocking upon adsorption of β to the chromatography column, a Sephadex G50 SF column which had been characterized previously for Aβ behavior was eluted with 3% bovine serum albumin (BSA) in TBS (50 ml) and equilibrated with non-BSA-containing buffer, subsequent to repeating the Aβ experiments.
The elution points of molecular mass standards and relative assignments of Aβ peak elutions are indicated. Mass standards were blue dextran (2×10^6 kDa, V0=void volume), BSA (66 kDa), carbonic anhydrase (29 kDa), cytochrome c (12.4 kDa), and aprotinin (6.5 kDa). The mass of Aβ is 4.3 kDa. […] Data for experiments performed in the presence of copper were taken from 214 nm readings and corrected for comparison.
Background: Size exclusion chromatography separates by hydrodynamic size, large species first.

For the next data set, the system named is trypsin. Put plainly: Tryptic digestion of Aβ after incubation with Zn2+. The data set is classed as biochemical. The settings on record: Zn^2+ 200 μM. How it is done: Tryptic Digestion of Aβ-Aβ1-40 (13.9 μg) was incubated with Zn^2+ ([…] in blocking buffer, 1 h, 37° C.) and then digested with trypsin (12 ng, 3 h, 37° C.). The reaction was stopped by adding SDS sample buffer containing phenylmethylsulfonyl fluoride (1 mM), boiling the samples (5 min), and applying the samples to Tris/Tricine gel electrophoresis and transfer. The blot was washed with EDTA, Coomassie-stained, incubated with ^65Zn^2+, individual bands were excised, assayed for ^65Zn^2+ binding, and N-terminal sequenced to confirm the identity of the digestion products. The effects of Zn^2+ (up to 100 μM in TBS) on the activity of trypsin, itself, were assayed by assay of Z-Arg-amido-4-methylcoumarin (Sigma) fluorescent cleavage product and determined to be negligible.
(FIG. 4a) depicts a blot of tryptic digests of Aβ (13.9 μg) after incubation with increasing concentrations of zinc (lane labels, in micromolar), stained by Coomassie Blue. […] The migration of the low molecular size markers (STD) are indicated (in kilodaltons) on the right. (FIG. 4b) depicts ^65Zn^2+ binding to Aβ tryptic digestion products. The blot in 4a was incubated with ^65Zn^2+, the visible bands excised, and the bound counts for each band determined.

T1 sequence (P05067 672-711): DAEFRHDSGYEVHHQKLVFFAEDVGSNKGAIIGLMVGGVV

In the case of `[Zn+2]` [Zn^2+, zinc], the “drop in Mini-Mental State Examination scores” value in data set [1] (AD group, after four days of oral zinc supplementation) came out at 31%. Further, the “effect on cognition in AD subjects” value in data set [1] (oral, 6.7-fold the recommended daily allowance) was “acute decline in cognition; also recorded: acutely adverse effect on cognition”. In addition, the “effect on age-matched control subjects” value in data set [1] (same conditions) is recorded as “remained unaffected”. The “covalent or SDS-resistant polymerization of Aβ” value at Aβ [2] is on record as “does not induce covalent or SDS-resistant polymerization”. In addition, the “Aβ applied to the column that is eluted” value on Aβ [3] was under 20%. Moreover, the “inhibition of Aβ hydrolysis by trypsin” value in the data set with trypsin was “complete inhibition”.
